Source: patent publication US8158606B2, “β-L-2′-deoxynucleosides for the treatment of resistant HBV strains and combination therapies” (priority 2002, dated 2012)

Assays:
in vivo = conditions: Sprague-Dawley, rat, 10 mg/kg
Method: (§12) The drug was detected and the concentration determined in plasma and urine using a reverse-phase HPLC technique. The data were analyzed by a non-modeling mathematical method and the AUCs derived by the linear trapezoidal rule.

[1] = Single-dose bioavailability of L-dC in the rat; conditions: Sprague-Dawley, plasma, 10 mg/kg
Method: as §12

human plasma proteins = format: in vitro ADME; conditions: ex vivo, ultrafiltration
[2] = tested on: L515M/M552I mutant HBV, cell line MI4; experiment: Antiviral testing in stable HepG2 cell lines, EPA of intracellular nucleocapsids; format: cell-based, hepatitis B virus; conditions: Hepatitis B virus, HepG2, L515M/M552I double mutant
Method: (§1) Recombinant DNA constructs corresponding to these lamivudine-resistant mutants were created by site directed mutagenesis. The test system comprised stable cell lines harboring each of the transfected mutant genomes, as well as a wild-type control HBV genome. The antiviral activity of LdT (telbivudine) and LdC, together with the control drugs lamivudine and PMEA, was determined against the mutant and wild-type HBV genomes in the respective test cell lines.
(§2) Endogenous Polymerase Assay (EPA) of cell lysate: Cells were grown in 12-well collagen plates to 100% confluency for 3-4 days and cytosolic lysates were prepared in 1 ml of 50 mM Tris-HCl pH 7.4, 150 mM NaCl, 5 mM MgCl2, 0.2% NP-40. EPAs were essentially performed as described (Seifer et al., 1998). […] The immobilized capsids were then washed, endogenous polymerase reactions were initiated in 50 ul reaction volume containing 50 mM Tris-HCl pH7.4, 75 mM NH4Cl, 1 mM EDTA, 20 mM MgCl2, 0.1 mM β-ME, 0.5% NP-40, 100 μM cold dGTP, TTP, dCTP, and 50 nM ^33P-dATP (Perkin Elmer Life Sciences Cat# NEG 612H), and incubated overnight at 37° C. Following digestion with 1 mg/ml of Proteinase K (Roche, Cat#1373196) for 1 h at 37° C., ^33P-labeled HBV DNA was liberated via phenol/chloroform extraction The nucleic acids were finally precipitated with equal volumes 5M NH4-acetate and 2.5 volumes 100% EtOH and separated on a 1% native agarose gel in Tris-borate buffer. Gels were either fixed with 7% TCA, then dried, or blotted onto positively charged nylon membrane (Pall Biodyne Plus Cat#60406) overnight at room temperature via capillary transfer in 0.4 N NaOH. Dried gels/membranes were exposed to a phosphoimager screen (Molecular Dynamics) overnight at room temperature, then scanned (Storm 860, Molecular Dynamics) and quantitated with ImageQuant (Molecular Dynamics) software.
(§3) 12-well Biocoat collagen I plates (Becton Dickinson Cat#35-4500) are seeded with cells at a density of 0.5-1×10^6 cells per well in 2 ml DMEM containing 5% FBS, 2 mM L-glutamine, 100 I.U. penicillin/100 μg/mL streptomycin, and 0.5 mg/mL G-418.
(§4) Drug dilutions are prepared freshly in 100% DMSO as 200× stocks. For each experiment, 4 aliquots of each drug dilution series are stored at −20° C. until used. Once cells reach confluency, drug treatment is initiated by adding 10 μL of drug dilution into 2 ml of fresh DMEM+5% FBS. […] The no-drug control well receives only 10 μl of DMSO. Cells are treated every other day with 2 mL of fresh drug/medium for a total of 8 days. Cell lysates are then collected on day 10 as described below:
(§5) Aspirate media and rinse cell monolayer carefully once with 1 mL of PBS.
(§6) Add 1 ml of lysis buffer (50 mM Tris-HCl pH 7.5/150 mM NaCl/5 mM MgCl2/0.2% NP-40). Store on ice for 30 min to 4 h.
(§7) Harvest lysed cells. Transfer to 1.5 ml microfuge tubes.
(§8) Clarify lysate by spinning for 5 min at RT and 14,000 rpm.
(§9) Transfer clarified lysate to fresh tubes. Snap-freeze on dry-ice and store at −80° C. until ready to continue with endogenous polymerase assays essentially as described above.
(§10) EC50's were generated from the phosphorimager data by curve fitting using Xlfit software.

[3] = tested on: M552I mutant HBV, cell line I2; experiment: as above; format: cell-based, hepatitis B virus; conditions: Hepatitis B virus, HepG2, M552I single mutant
Method: as §1, §2, §3, §4, §5, §6, §7, §8, §9, §10

[4] = tested on: L515M/M552V mutant HBV, cell line MV5/B3; experiment: as above; format: cell-based, hepatitis B virus; conditions: Hepatitis B virus, HepG2, L515M/M552V, cell line MV5/B3; mean ± SD of three to four experiments; read-out: EC50
Method: as §1, §2, §3, §4, §5, §6, §7, §8, §9, §10

[5] = tested on: M552V mutant HBV, cell line V1/C9; experiment: as above; format: cell-based, hepatitis B virus; conditions: M552V single mutant
Method: as §1, §2, §3, §4, §5, §6, §7, §8, §9, §10

[6] = Single-dose bioavailability of L-dC in the woodchuck; format: in vivo; conditions: for half-life: in vivo, read-out: t1/2 of L-dC (converted); for bioavailability: po, 10 mg/kg, L-dC 10 mg/kg PO vs IV; for AUC(0-t): read-out: AUCt→24 of L-dC
Method: Plasma drug levels, CL, ty, and F were determined.

[7] = tested on: human peripheral blood mononuclear cells (PBMCs), bone marrow progenitor cells and numerous cell lines; experiment: Cytotoxicity of L-dC; format: cell-based, human and other non-human mammalian
Source text: (§11) Human DNA polymerases and mitochondrial function were not affected by L-dC in vitro. L-dC was non-cytotoxic to human peripheral blood mononuclear cells (PBMCs), bone marrow progenitor cells and numerous cell lines of human and other non-human mammalian origin.

[8] = tested on: Human DNA polymerases and mitochondrial function; experiment: Effect on human DNA polymerases and mitochondrial function in vitro
Source text: as §11

[9] = Single dose bioavailability of L-dC in the cynomologus monkey; format: in vivo, cynomolgus monkey; conditions: for AUC(0-t) / half-life: n=3, mean; for AUC(0-t): read-out: AUClast of L-dC; for half-life: in vivo
Method: The pharmacokinetics of L-dC following IV and oral administration of L-dC to cynomolgus monkeys was determined.

[10] = plasma, L-dC 10 mg/kg single IV dose, mean
[11] = plasma, L-dC 10 mg/kg single PO dose, mean
[12] = cynomolgus monkey, blood, L-dC 10 mg/kg single IV dose
[13] = cynomolgus monkey, blood, L-dC 10 mg/kg single oral dose

Nc1ccn([C@@H]2CC(O)[C@H](CO)O2)c(=O)n1 (stereo partly drawn) [L-dC, 2′-Deoxy-β-L-cytidine]
half-life (in vivo; po): 2.52 h
half-life (in vivo; female, iv): 1.21 h
bioavailability ([1]; oral): 15.4%
AUC(0-t) ([1]; po): 4.77 µM·h
Cmax ([1]; po): 1.5 µM
Tmax ([1]; po): 1 h
AUC(0-t) ([1]; female, iv): 30.1 µM·h
Cmax ([1]; female, iv): 91.1 µM
Tmax ([1]; female, iv): 0 h
Vd ([1]; female, iv): 2.53 L/kg
clearance ([1]; female, iv): 1.44 L/h/kg
binding to human plasma proteins (human plasma proteins): 19.7%
EC50 [2]: > 1000 µM
EC50 [3]: > 1000 µM
EC50 [4]: ~780 µM
activity against the mutant, in words [5]: retained almost complete activity
half-life ([6]; L-dC 10 mg/kg single IV dose, mean): 2.85 h
half-life ([6]; L-dC 10 mg/kg single PO dose, mean): 5.22 h
bioavailability ([6]; plasma, read-out: oral bioavailability (F), average): 9.57%
bioavailability ([6]; plasma, read-out: oral bioavailability, range of animals): 5.6 to 16.9%
Tmax ([6]; plasma, L-dC 10 mg/kg single IV dose): 0 h
Vd [6, 10]: 1.17 L/kg
clearance [6, 10]: 0.39 L/h/kg
Cmax ([6]; plasma, L-dC 10 mg/kg single IV dose, mean, at 2 minutes post-dose): 112 µM
AUC(0-t) ([6]; plasma, L-dC 10 mg/kg single IV dose, n=3, t = 0.033 hours, mean): 174 µM·h
Cmax [6, 11]: 1.37 µM
Tmax [6, 11]: 3 h
AUC(0-t) ([6]; plasma, L-dC 10 mg/kg single PO dose, n=3, t = 0.25 hours, mean): 11.3 µM·h
cytotoxicity in words [7]: non-cytotoxic
effect on human DNA polymerases and mitochondrial function [8]: not affected
L-dC as share of the dose recovered in the urine ([9]; L-dC 10 mg/kg IV): 94%
administered dose recovered in urine within 2 hours ([9]; L-dC 10 mg/kg IV): 71%
renal clearance as share of total L-dC clearance ([9]; L-dC 10 mg/kg IV): 87%
L-dC as share of drug excreted in the urine ([9]; L-dC 10 mg/kg oral): ~69%
administered oral dose recovered in urine after 72 hours ([9]; L-dC 10 mg/kg oral): 15.5%
administered oral dose recovered in urine within 12 hours ([9]; L-dC 10 mg/kg oral): Approximately 8.5%
CL renal ([9]; cynomolgus monkey, blood and urine, L-dC 10 mg/kg single IV dose, mean, read-out: renal clearance (CLR) (converted)): 0.46 L/h/kg
bioavailability ([9]; cynomolgus monkey, blood, L-dC 10 mg/kg oral vs IV, mean, read-out: oral bioavailability (F)): 16.4%
Tmax [9, 12]: 0 h
Cmax ([9]; cynomolgus monkey, blood, L-dC 10 mg/kg single IV dose, mean, at 15 minutes post-dose): 95.7 µM
Vd ([9]; cynomolgus monkey, blood, L-dC 10 mg/kg single IV dose, mean, read-out: apparent volume of distribution (Vd)): 1.22 L/kg
clearance ([9]; cynomolgus monkey, blood, L-dC 10 mg/kg single IV dose, mean, read-out: total clearance (CL) (converted)): 0.53 L/h/kg
AUC(0-t) [9, 12]: 81.1 µM·h
Cmax [9, 13]: 3.38 µM
Tmax ([9]; cynomolgus monkey, blood, L-dC 10 mg/kg single oral dose, mean): 2.33 h
AUC(0-t) [9, 13]: 13.7 µM·h
half-life ([9]; cynomolgus monkey, L-dC 10 mg/kg single IV dose, read-out: t1/2 of L-dC (converted)): 1.59 h
half-life ([9]; cynomolgus monkey, L-dC 10 mg/kg single oral dose, read-out: terminal t1/2 of L-dC (converted)): 2.95 h
